Assay results from ChEMBL document CHEMBL1201862, “PubChem BioAssay data set” (2004).
Active and inactive are the calls of the source.

Assays:
[1] = biological target: T1, Rac GTPase-activating protein 1 (Homo sapiens, UniProt Q9H0H5); test: MgcRacGAP GTPase-activating activity inhibitors, confirmation, biochemical, ADP Hunter fluorescence, primary and confirmatory (AID 624330); assay type: functional
T1 sequence (Q9H0H5 whole entry): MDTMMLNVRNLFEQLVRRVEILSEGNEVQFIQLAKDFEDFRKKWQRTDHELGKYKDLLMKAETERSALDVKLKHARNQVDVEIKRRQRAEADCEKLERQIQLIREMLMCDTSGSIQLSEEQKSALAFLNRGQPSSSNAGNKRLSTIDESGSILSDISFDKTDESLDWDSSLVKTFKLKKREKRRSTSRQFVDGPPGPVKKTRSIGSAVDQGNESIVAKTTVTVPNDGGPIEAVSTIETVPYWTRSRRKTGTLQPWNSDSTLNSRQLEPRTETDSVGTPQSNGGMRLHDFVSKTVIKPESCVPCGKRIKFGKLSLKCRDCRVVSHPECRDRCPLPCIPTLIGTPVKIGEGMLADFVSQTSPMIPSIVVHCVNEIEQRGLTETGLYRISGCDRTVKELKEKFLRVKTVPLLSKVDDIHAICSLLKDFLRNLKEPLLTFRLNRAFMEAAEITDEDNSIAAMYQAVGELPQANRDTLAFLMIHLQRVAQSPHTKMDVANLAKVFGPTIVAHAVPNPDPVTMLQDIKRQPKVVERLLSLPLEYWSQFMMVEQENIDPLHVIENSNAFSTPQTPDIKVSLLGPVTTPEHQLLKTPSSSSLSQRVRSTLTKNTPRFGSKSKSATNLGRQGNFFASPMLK

Aspartyl aminopeptidase = Aspartyl aminopeptidase (Plasmodium falciparum 3D7, UniProt Q8I2J3)
Chain of Aspartyl aminopeptidase (Q8I2J3 whole entry): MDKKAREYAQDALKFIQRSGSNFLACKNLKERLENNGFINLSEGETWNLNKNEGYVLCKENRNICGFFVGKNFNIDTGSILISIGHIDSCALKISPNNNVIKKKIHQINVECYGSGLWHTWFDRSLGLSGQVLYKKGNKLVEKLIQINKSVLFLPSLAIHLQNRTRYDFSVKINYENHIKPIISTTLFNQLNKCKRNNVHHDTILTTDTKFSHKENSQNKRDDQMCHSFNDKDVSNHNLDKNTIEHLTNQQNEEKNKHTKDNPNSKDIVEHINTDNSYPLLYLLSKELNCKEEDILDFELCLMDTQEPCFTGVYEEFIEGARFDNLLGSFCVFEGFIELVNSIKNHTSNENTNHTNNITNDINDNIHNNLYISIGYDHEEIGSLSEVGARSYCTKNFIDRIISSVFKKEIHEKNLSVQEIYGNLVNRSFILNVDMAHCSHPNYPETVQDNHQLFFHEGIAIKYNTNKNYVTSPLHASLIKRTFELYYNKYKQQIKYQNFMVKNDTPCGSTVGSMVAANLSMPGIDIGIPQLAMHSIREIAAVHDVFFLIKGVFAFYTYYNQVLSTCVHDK

Procathepsin L = Procathepsin L (Homo sapiens, UniProt P07711)
Chain of Procathepsin L (P07711 whole entry): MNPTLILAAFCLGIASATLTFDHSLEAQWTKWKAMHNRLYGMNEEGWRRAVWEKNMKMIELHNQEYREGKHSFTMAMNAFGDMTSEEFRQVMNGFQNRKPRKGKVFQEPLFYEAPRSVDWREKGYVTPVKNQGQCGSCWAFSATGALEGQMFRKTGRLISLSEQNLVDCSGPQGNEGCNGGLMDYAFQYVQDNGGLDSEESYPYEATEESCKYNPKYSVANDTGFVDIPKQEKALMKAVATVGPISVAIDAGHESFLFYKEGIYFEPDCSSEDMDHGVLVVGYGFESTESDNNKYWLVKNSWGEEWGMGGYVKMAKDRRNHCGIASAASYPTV

HEK293 = test: Fluorescence-based counterscreen for potentiators or agonists of NPY-Y1: cell-based high-throughput dose response assay for inhibitors of cyclic nucleotide gated ion channel (CNGC) activity. In this assay, the parental HEK293 cell line transfected with a cyclic-nucleotide gated ion channel (CNGC)-based cAMP sensor is used to measure inhibition of isoproterenol-induced CNGC …; assay type: functional; conditions: Homo sapiens
[2] = biological target: T2, Neuropeptide Y receptor type 2 (Homo sapiens, UniProt P49146); test: Fluorescence-based counterscreen for agonists of NPY-Y1: cell-based high-throughput dose response assay for agonists of NPY-Y2.; assay type: functional
T2 sequence (P49146 whole entry): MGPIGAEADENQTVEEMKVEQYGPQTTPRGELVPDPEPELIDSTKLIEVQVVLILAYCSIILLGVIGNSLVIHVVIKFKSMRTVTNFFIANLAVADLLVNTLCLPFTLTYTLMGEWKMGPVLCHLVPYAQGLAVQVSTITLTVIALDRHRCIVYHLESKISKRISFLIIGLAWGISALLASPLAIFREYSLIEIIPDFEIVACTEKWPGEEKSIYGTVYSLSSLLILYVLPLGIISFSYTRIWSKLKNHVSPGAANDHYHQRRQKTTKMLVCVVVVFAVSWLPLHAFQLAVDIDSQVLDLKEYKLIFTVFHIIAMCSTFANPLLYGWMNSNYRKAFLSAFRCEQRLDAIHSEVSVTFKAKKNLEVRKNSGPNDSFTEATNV

[3] = biological target: T3, Neuropeptide Y receptor type 1 (Homo sapiens, UniProt P25929); test: Fluorescence-based dose response cell-based high-throughput screening assay for agonists of NPY-Y1. [Related pubchem assays: 1697 (Screening assay (NPY-Y1 agonists).), 1359 (Screening assay (NPY-Y2 potentiators or agonists).), 1304 (Screening assay (NPY-Y1 potentiators or agonists).), 1704 (Screening assay (CNGC inhibitors).), 1791 (Summary AID.)]; assay type: functional
T3 sequence (P25929 whole entry): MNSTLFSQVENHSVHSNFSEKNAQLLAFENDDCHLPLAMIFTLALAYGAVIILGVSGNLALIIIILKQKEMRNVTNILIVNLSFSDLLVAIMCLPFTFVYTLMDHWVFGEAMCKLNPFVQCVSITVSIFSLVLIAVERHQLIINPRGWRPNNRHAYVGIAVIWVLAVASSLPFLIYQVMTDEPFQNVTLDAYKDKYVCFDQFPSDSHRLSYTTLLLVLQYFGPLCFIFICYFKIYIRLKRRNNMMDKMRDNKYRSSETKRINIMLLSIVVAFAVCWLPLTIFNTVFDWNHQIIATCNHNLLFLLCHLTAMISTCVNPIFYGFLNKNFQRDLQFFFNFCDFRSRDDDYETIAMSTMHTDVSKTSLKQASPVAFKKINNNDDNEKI

[4] = biological target: Polyadenylate-binding protein 1 (Homo sapiens, UniProt P11940); test: PABP poly(A) RNA binding inhibitors, primary screen, biochemical, fluorescence polarization, uHTS (AID 2014)
Chain of Polyadenylate-binding protein 1 (P11940 whole entry): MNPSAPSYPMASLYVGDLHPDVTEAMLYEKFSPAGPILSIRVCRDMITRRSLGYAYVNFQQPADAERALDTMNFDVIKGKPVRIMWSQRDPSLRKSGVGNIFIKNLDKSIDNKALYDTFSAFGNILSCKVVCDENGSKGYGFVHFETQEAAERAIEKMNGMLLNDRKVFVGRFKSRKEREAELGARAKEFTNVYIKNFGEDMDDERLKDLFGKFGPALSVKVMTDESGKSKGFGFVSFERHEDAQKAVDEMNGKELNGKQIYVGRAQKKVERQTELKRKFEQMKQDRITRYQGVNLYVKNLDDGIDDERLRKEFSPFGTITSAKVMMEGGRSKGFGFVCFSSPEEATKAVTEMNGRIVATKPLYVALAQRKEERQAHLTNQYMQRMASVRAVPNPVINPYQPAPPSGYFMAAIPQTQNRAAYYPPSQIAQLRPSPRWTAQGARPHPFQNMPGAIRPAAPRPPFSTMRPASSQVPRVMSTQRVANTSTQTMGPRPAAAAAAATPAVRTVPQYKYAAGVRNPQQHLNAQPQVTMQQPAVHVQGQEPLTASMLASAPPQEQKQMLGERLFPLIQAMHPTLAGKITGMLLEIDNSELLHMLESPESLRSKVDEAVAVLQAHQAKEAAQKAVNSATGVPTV

[5] = biological target: Eukaryotic translation initiation factor 4H (Homo sapiens, UniProt Q15056); test: human eIF4H binding inhibitors, primary screen, translation initiation inhibitor project, biochemical, uHTS, fluorescence polarization (AID 2012)
[6] = biological target: T4, Alkaline phosphatase, tissue-nonspecific isozyme (Homo sapiens, UniProt P05186)
T4 sequence (P05186 whole entry): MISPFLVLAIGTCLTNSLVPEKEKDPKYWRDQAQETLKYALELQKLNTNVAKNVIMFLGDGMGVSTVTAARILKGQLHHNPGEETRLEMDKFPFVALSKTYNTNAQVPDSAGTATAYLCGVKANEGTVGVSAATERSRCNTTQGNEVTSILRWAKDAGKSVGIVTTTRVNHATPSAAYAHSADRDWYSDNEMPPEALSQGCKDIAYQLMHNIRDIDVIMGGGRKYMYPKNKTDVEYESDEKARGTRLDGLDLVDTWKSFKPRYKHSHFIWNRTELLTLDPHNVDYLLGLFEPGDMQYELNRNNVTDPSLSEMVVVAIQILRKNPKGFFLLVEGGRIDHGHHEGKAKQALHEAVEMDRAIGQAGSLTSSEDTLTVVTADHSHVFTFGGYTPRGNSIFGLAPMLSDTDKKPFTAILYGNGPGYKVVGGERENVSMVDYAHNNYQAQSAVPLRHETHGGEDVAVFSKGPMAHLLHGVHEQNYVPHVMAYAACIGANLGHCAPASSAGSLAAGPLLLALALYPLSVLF

[7] = biological target: Acyl-homoserine lactone acylase PvdQ (Pseudomonas aeruginosa (strain LESB58), UniProt Q9I194); test: P. aeruginosa PvdQ acylase inhibitors, dose response, biochemical, fluorescence, plate reader and imaging, cherry-picks (AID 493231)
Chain of Acyl-homoserine lactone acylase PvdQ (Q9I194 24-193 limits assumed): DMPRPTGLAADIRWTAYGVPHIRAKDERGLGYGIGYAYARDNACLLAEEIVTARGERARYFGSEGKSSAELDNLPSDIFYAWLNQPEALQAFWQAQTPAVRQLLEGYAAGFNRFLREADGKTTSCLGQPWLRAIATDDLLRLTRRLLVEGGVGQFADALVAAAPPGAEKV
Chain of Acyl-homoserine lactone acylase PvdQ (Q9I194 217-762 limits assumed): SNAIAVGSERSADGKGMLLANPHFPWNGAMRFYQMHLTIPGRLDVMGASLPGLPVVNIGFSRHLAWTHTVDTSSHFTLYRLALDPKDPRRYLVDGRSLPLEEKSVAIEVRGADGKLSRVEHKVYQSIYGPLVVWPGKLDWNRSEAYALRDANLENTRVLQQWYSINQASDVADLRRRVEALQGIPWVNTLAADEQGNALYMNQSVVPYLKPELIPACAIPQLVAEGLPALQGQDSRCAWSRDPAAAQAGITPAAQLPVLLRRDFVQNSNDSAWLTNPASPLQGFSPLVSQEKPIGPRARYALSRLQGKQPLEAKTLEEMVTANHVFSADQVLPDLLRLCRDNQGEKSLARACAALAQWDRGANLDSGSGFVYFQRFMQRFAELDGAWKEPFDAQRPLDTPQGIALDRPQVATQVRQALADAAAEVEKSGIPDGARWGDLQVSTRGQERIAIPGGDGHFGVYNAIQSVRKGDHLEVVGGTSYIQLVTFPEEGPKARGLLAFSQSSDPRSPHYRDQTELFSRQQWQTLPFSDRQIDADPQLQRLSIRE

[8] = biological target: T5, Heat shock 70 kDa protein 1A (Homo sapiens, UniProt P0DMV8); test: Hsp70 inhibitors, probe displacement, primary screen, biochemical, fluorescence polarization (AID 583)
T5 sequence (P0DMV8 whole entry): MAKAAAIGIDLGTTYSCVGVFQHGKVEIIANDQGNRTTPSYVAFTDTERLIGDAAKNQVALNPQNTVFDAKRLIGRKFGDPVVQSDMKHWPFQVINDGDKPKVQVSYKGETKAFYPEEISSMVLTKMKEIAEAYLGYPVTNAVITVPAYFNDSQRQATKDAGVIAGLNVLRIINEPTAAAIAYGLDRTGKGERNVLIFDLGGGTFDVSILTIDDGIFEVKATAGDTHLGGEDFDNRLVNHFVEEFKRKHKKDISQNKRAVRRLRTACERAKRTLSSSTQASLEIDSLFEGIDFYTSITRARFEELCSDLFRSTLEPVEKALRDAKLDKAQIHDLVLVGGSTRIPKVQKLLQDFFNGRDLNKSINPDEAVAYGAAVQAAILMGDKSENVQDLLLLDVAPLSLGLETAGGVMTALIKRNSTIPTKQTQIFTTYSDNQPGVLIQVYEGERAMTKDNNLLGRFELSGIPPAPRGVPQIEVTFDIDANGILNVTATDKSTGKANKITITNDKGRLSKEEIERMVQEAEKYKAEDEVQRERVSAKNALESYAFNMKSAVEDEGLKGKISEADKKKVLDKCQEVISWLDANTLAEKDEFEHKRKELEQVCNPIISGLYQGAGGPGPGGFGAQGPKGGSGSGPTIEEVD

[9] = biological target: T5, Heat shock 70 kDa protein 1A; test: Hsp70 inhibitors, biochemical, TR-FRET (AID 786)
[10] = inhibitors of firefly luciferase expression or activity, dose response, H4 neuroglioma cells, luminescence (AID 1990); assay type: functional, cell-based
[11] = inhibitors of SNCA 5'UTR-driven translation, confirmation, luminescence, H4 neuroglioblastoma cells, dose confirmation (AID 2454); assay type: functional, cell-based;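 also: H4 neuroglioblastoma cells carrying an alpha-synuclein 5'UTR luciferase reporter; potency for inhibition of the luciferase signal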
cells = assay type: functional, cell-based
[12] = inhibitors of SNCA 5'UTR-driven reporter translation, confirmation, H4 neuroglioma cells, luminescence (AID 1988); assay type: functional, cell-based
Jurkat = test: antigen receptor-induced NF-kB inhibitors, dose response, Jurkat, luciferase reporter, luminescence, B- and T-cell (AID 489004); assay type: functional, cell-based; conditions: Homo sapiens;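 also: NF-kB luciferase reporter Jurkat cells stimulated with PMA plus ionomycin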
[13] = cytotoxicity in HEK-293T NF-kB-Luc cells, dose response, cytotoxicity control for B/T-cell NF-kB inhibitor project, cell-based, uHTS hits (AID 489019); assay type: functional;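 also: IC50 reflects cytotoxicity as loss of cell viability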
[14] = luciferase reporter signal reduction – luminescence, H4-C neuroglioblastoma cells, dose response (AID 2458); assay type: functional, cell-based;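 also: H4 neuroglioblastoma cells stably carrying a luciferase reporter gene fusion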
[15] = Luminescence Cell-Based Dose Response HTS to Identify Inhibitors of 5'UTR Stem-Loop Driven Prion Protein mRNA Translation in H4 Neuroglioblastoma Cells. [Related pubchem assays: 1827 (Project Summary), 1813 (Primary HTS)]; assay type: functional
[16] = microbe, parasite or virus in culture; assay type: functional; conditions: Mycobacterium tuberculosis
INS1 = test: beta cell apoptosis inhibitors, cytokine rescue, dose response, luminescence, retest (AID 449756); assay type: functional, cell-based; conditions: Rattus norvegicus;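 also: cell death triggered by IL-1 beta plus TNF-alpha plus IFN-gamma mixture; protective hits raise ATP signal compared with cytokine alone wells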
[17] = biological target: Heat shock protein HSP 90-alpha (Homo sapiens, UniProt P07900); assay type: functional, organism-based
[18] = biological target: Serine/threonine-protein phosphatase PP1-alpha catalytic subunit (Homo sapiens, UniProt P62136); test: PP1 phosphatase inhibitors, dose response, biochemical, fluorescence (AID 2403);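 also: phosphatase turnover of OMFP into fluorescent 3-O-methylfluorescein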
Chain of Serine/threonine-protein phosphatase PP1-alpha catalytic subunit (P62136 whole entry): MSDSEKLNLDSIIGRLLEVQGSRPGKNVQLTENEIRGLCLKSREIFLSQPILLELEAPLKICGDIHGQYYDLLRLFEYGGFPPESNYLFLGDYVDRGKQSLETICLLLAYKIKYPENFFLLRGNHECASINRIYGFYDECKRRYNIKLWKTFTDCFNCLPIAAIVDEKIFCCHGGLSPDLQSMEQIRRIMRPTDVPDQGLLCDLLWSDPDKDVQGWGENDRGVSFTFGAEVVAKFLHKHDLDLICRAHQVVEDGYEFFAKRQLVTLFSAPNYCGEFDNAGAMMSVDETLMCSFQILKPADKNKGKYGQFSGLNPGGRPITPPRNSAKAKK

Melanocortin receptor 4 = Melanocortin receptor 4 (Homo sapiens, UniProt P32245); test: MC4R antagonist potency on cAMP, dose response, cell-based, TR-FRET, biased antagonists (AID 602298); assay type: functional;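 also: antagonist potency against agonist-stimulated cAMP production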
Chain of Melanocortin receptor 4 (P32245 whole entry): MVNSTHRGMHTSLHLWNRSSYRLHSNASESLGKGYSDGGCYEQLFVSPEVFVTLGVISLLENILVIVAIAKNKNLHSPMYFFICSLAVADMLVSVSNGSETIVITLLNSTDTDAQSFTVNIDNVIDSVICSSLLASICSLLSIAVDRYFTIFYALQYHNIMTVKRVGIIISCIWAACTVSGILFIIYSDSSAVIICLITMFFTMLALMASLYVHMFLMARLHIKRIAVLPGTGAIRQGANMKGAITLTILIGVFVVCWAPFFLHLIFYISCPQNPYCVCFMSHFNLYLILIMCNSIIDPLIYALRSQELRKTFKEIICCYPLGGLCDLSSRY

[19] = biological target: Serine/threonine-protein phosphatase (Homo sapiens, UniProt Q9BPW0); test: Counterscreen for inhibitors of PP1: fluorescence-based biochemical high throughput dose response assay to identify inhibitors of Protein Phosphatase 5 (PP5). [Related pubchem assays: 2034 (Summary (PP5 inhibitors)), 1987 (PP5 inhibitors in singlate), 2235 (PP1 inhibitors in singlate)]
Chain of Serine/threonine-protein phosphatase (Q9BPW0 whole entry): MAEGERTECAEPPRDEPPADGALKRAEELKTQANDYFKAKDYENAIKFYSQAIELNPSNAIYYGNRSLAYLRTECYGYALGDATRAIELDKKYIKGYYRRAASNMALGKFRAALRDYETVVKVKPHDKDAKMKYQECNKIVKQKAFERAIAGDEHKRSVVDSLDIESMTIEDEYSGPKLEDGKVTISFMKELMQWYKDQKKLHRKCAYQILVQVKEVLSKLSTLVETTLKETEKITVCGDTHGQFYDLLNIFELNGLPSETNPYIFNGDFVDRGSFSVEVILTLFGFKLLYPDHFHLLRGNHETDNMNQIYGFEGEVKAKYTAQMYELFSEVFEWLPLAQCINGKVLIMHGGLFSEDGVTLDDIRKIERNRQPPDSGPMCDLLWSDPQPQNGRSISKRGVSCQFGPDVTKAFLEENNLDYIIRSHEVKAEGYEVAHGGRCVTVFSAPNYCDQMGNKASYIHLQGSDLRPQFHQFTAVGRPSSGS

[20] = nonselective inhibitors of cellular cAMP signaling, dose response, counter-screen for MC4R biased antagonist project, cell-based, TR-FRET cAMP detection (AID 602305); assay type: functional;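 also: U2OS cells stimulated with forskolin near its EC80 as the cAMP inducer; potency is for inhibition of forskolin-stimulated cAMP signaling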
Protein skinhead-1 = biological target: T6, Protein skinhead-1 (Caenorhabditis elegans, UniProt P34707); assay type: functional
T6 sequence (P34707 whole entry): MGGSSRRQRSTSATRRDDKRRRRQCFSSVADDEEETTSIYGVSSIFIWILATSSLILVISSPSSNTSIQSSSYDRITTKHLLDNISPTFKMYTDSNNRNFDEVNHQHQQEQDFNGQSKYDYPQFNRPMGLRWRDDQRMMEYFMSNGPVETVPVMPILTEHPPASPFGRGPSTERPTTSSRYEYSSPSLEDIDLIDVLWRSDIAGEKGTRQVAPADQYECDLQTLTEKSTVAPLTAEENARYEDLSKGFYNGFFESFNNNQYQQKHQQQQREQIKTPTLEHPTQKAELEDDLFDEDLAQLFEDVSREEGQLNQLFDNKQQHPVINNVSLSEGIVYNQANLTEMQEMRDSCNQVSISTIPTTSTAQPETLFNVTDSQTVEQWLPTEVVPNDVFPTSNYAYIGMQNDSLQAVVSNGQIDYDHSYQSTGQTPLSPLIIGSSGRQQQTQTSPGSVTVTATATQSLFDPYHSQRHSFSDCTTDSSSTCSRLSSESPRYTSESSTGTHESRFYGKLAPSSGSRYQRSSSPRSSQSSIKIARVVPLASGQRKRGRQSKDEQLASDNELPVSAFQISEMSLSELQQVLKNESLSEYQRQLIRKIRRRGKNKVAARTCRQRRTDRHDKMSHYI

Vero = test: cells; assay type: functional; conditions: Chlorocebus sabaeus
Streptokinase A = biological target: T7, Streptokinase A (Streptococcus pyogenes serotype M1, UniProt P10520); test: S. pyogenes streptokinase expression inhibitors, potency, dose response, plasminogen activation absorbance, OD405 (AID 1914); assay type: functional, Streptococcus pyogenes M1 GAS;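 also: secreted streptokinase activity via plasminogen activation per viability signal from cell pellet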
T7 sequence (P10520 whole entry): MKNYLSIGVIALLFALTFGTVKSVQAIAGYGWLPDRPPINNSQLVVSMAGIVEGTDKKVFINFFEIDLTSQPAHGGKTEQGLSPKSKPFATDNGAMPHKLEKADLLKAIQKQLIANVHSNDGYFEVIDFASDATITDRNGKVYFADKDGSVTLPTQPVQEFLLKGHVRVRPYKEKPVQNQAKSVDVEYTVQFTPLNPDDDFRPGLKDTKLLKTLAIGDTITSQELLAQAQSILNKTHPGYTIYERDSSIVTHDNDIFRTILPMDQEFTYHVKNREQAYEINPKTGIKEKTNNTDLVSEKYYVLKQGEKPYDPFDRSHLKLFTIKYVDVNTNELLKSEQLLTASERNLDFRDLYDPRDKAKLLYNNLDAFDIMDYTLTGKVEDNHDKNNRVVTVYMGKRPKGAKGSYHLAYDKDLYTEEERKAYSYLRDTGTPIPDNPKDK

[21] = tested on: Streptococcus sp. 'group A'; test: growth inhibition of control SK(-) GAS strain, dose response, counter-screen for streptokinase expression inhibitor project, luminescence, kanamycin, BacTiterGlo, confirmation (AID 1900); assay type: functional, organism-based
Streptococcus [22] = test: Luminescence Microorganism-Based Dose Response Follow up to Identify Compounds Cytotoxic to Streptococcus. [Related pubchem assays: 1677 (Project Summary), 1915, 1914, 1902 (Retest at Dose), 1900 (Counter Screen), 1662 (Primary HTS)]; assay type: functional, organism-based
Streptococcus [23] = test: Group A Streptococcus viability loss, dose response, counter-screen for streptokinase expression inhibitor project, luminescence, BacTiterGlo (AID 1915); assay type: functional, organism-based;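 also: potency for reduction of bacterial viability or growth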

Cc1cc(O)nc2c(N=Nc3ccc(O)cc3)c(N)nn12
IC50 [1]: 12.1 µM (active) | IC50 (Aspartyl aminopeptidase): 1.51 µM (active) | IC50 (Procathepsin L): > 59.6 µM (not active)

OC(CNC1Cc2ccccc2C1)COc1ccc(Cl)cc1 (stereo not drawn)
IC50 (HEK293): > 3.94 µM (active) | EC50 [2]: > 35.4 µM (not active) | EC50 [3]: 11.6 µM (not active)

Cc1ccccc1/C=C/c1cccc[n+]1C
IC50 [4]: 7.43 µM (active) | IC50 [5]: > 100 µM (inactive)

CCOC(=O)CSc1nc2ccccc2c(=O)n1CCC(=O)NCCc1ccc(OC)c(OC)c1
EC50 [6]: > 100 µM (not active)

N#Cc1cc([N+](=O)[O-])ccc1N1CCCC1
AC50 [7]: 3.79 µM (active)

Cc1ccnc2c(N3C(=O)C4C5C=CC(C5)C4(C)C3=O)cccc12 (stereo not drawn)
IC50 [8]: > 100 µM (not active) | IC50 [9]: > 100 µM (not active)

CC1CCc2c(sc(NC(=O)CSc3nc[nH]n3)c2C#N)C1 (stereo not drawn)
EC50 [10]: < 0.1 µM (active) | EC50 [11]: 0.323 µM (active) | EC50 (cells): 0.337 µM (active) | EC50 [12]: < 0.1 µM (active) | IC50 (Jurkat): 0.52 µM (active) | IC50 [13]: > 80 µM (inactive) | EC50 [14]: 0.232 µM (active) | EC50 [15]: < 0.1 µM (active)

CC1=NOC(=O)/C1=C/c1ccc(-c2ccc(Cl)cc2)o1
CC50 [16]: > 40 µM (active) | AC50 (INS1): 6.76 µM (active) | AC50 [17]: 2.08 µM (active) | IC50 [18]: 6.86 µM (active) | IC50 (Melanocortin receptor 4): 8.05 µM (active) | IC50 [19]: > 67 µM (not active) | IC50 [20]: 13.4 µM (inactive) | IC50 (Protein skinhead-1): 62.2 µM (inactive) | CC50 (Vero): > 25 µM (active)

O=[N+]([O-])c1ccc(Nc2nc(NCCO)nc(N3CCCC3)n2)cc1
EC50 (Streptokinase A): 7.48 µM (active) | EC50 [21]: 6.68 µM (active) | EC50 (Streptococcus [22]): 54.3 µM (active) | EC50 (Streptococcus [23]): > 150 µM (not active)
